According to patent publication US8828401B2, “Cytotoxic peptides and antibody drug conjugates thereof” (Pfizer Inc., priority 2011, dated 2014):
Starred links: 1 amine or outer side, 2 acyl side, 3 side chain; linkers in the order of their positions; H or OH if unused. Non-standard residues stand in square brackets, D forms with d. Residues, ends and D or L forms follow the SMILES beside them. *: point of attachment. Dolaproine = CO[C@@H]([C@@H]1CCCN1)[C@@H](C)C(=O)O; X6 = O=C([C@H](N[*:1])[C@@H]1Cc2ccccc21)[*:2]; X5 = O=C([C@@H](N[*:1])C1(c2ccccc2)CC1)[*:2]; X2 = O=C([C@H](N[*:1])C1(c2ccccc2)CC1)[*:2]; Dil = CC[C@H](C)[C@H](NC)[C@@H](CC(=O)O)OC; NMeαMePro = CN1CCC[C@@]1(C)C(=O)*; N(CH2CH2)2NH = C1CN(*)CCN1; X1 = CN1CCC[C@]1(C)C(=O)*; NMeAib = CNC(C)(C)C(=O)O; X4 = CN(C)C(C)(C)C(=O)*; NH(propargyl) = C#CCN*; Aib = CC(C)(N)C(=O)O; X3 = C1C2CC1(N*)C2

Key:
Type in all cases: cell-based
BT474 (breast cancer) = experiment: In vitro cell assay, MTS cell viability 96 hours after treatment; details: Homo sapiens, BT-474, BT474 cells; geometric mean; cytotoxic peptides; read-out: BT474 GMEAN IC50
In short: (§1)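 Cells are exposed to 3-fold dilution series (10 points, duplicate wells) of ADC or free compound lacking antibody. After 96 hours, an MTS assay quantifies viability relative to untreated cells.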

[1] = test system: MDA-MB-361-DYT2 (breast cancer); experiment: as above; details: read-out: MDA-MB-361-DYT2 GMEAN IC50, MDA-MB-361-DYT2 cells; geometric mean; cytotoxic peptides
In short: as §1

N87 (gastric cancer) = experiment: as above; details: read-out: N87 GMEAN IC50, N87 cells; geometric mean; cytotoxic peptides
In short: as §1

[2] = test system: MDA-MB-468 (breast cancer); experiment: In vitro cytotoxicity assay with anti-Notch ADCs (MTS); details: average of 2-4 repeats where ± S.E.M. is given
Protocol: The effects of anti-Notch ADCs were assessed on 1) cell lines endogenously expressing Notch protein: HCC2429 (lung cancer), OVCAR3 (ovarian cancer) and MDA-MB-468 (breast cancer), 2) cell lines engineered to over-express Notch protein: MDA-MB-468/hNotch and U2OS/hNotch, and 3) a negative control cell line (SW900) using an MTS cellular viability indicator (Promega, Madison, Wis.). These cell lines were cultured with increasing concentrations of anti-Notch ADCs comprising humanized anti-Notch antibodies, hu28 and hu75, and rat-human chimeric anti-Notch antibodies, ch28 and ch75, conjugated to various linker-payload combinations of the present invention. As a specificity control for the anti-Notch-ADCs, non-targeted control-ADCs (huNeg8.8-ADCs or ch2H6-ADCs) were also tested on the same cell lines. After four days, viability of each culture was assessed. IC50 values were calculated by logistic non-linear regression and presented as ng Ab/mL. The drug antibody ratio (DAR) is also provided.

| Molecule | IC50 (BT474 (breast cancer)) | IC50 [1] | IC50 (N87 (gastric cancer)) | IC50 (ng Ab/mL) ± S.E.M. [2] |
| --- | --- | --- | --- | --- |
| CC[C@H](C)[C@@H]([C@@H](CC(=O)N1CCC[C@H]1[C@H](OC)[C@@H](C)C(=O)NCCC1C=CC=CC=C1)OC)N(C)C(=O)[C@@H](NC(=O)[C@]1(C)CCCCN1)C(C)C [#178, (2S)-N-[(2S)-1-{[(3R,4S,5S)-1-{(2S)-2-[(1R,2R)-3-{[2-(cyclohepta-2,4,6-trien-1-yl)ethyl]amino}-1-methoxy-2-methyl-3-oxopropyl]pyrrolidin-1-yl}-3-methoxy-5-methyl-1-oxoheptan-4-yl](methyl)amino}-3-methyl-1-oxobutan-2-yl]-2-methylpiperidine-2-carboxamide] | 0.968 nM | 0.911 nM | 1.26 nM |  |
| CC[C@H](C)[C@@H]([C@@H](CC(=O)N1CCC[C@H]1[C@H](OC)[C@@H](C)C(=O)NCCC1C=CC=CC=C1)OC)N(C)C(=O)[C@@H](NC(=O)[C@@]1(F)CCNC1)C(C)C [#184, N-[(3R,4S,5S)-1-{(2S)-2-[(1R,2R)-3-{[2-(cyclohepta-2,4,6-trien-1-yl)ethyl]amino}-1-methoxy-2-methyl-3-oxopropyl]pyrrolidin-1-yl}-3-methoxy-5-methyl-1-oxoheptan-4-yl]-N˜2˜-{[(3R)-3-fluoropyrrolidin-3-yl]carbonyl}-N-methyl-L-valinamide] | 2.48 nM | 3.43 nM | 5.1 nM |  |
| CC[C@H](C)[C@@H]([C@@H](CC(=O)N1CCC[C@H]1[C@H](OC)[C@@H](C)C(=O)N[C@@H](Cc1ccc2c(c1)CCCN2)C(=O)OC)OC)N(C)C(=O)[C@@H](NC(=O)[C@@]1(C)CCCN1C)C(C)C [#200, 1,2-dimethyl-D-prolyl-N-[(3R,4S,5S)-3-methoxy-1-{(2S)-2-[(1R,2R)-1-methoxy-3-{[(2S)-1-methoxy-1-oxo-3-(1,2,3,4-tetrahydroquinolin-6-yl)propan-2-yl]amino}-2-methyl-3-oxopropyl]pyrrolidin-1-yl}-5-methyl-1-oxoheptan-4-yl]-N-methyl-L-valinamide] | 0.048 nM | 0.017 nM | 0.029 nM |  |
| CC[C@H](C)[C@@H]([C@@H](CC(=O)N1CCC[C@H]1[C@H](OC)[C@@H](C)C(=O)N[C@@H](Cc1ccccc1)C(=O)OC)OC)N(C)C(=O)[C@@H](NC(=O)[C@]1(C)CCCN1C)C(C)C [#209, 1,2-dimethyl-L-prolyl-N-[(3R,4S,5S)-3-methoxy-1-{(2S)-2-[(1R,2R)-1-methoxy-3-{[(2S)-1-methoxy-1-oxo-3-phenylpropan-2-yl]amino}-2-methyl-3-oxopropyl]pyrrolidin-1-yl}-5-methyl-1-oxoheptan-4-yl]-N-methyl-L-valinamide] (NMeαMePro-V[Dil][Dolaproine]F-OMe) | 0.067 nM | 0.058 nM | 0.067 nM |  |
| CC[C@H](C)[C@@H]([C@@H](CC(=O)N1CCC[C@H]1[C@H](OC)[C@@H](C)C(=O)NC12CC(C1)C2)OC)N(C)C(=O)[C@@H](NC(=O)C(C)(C)N)C(C)C [#221] (H-[Aib]V[Dil][Dolaproine]-X3) | 32.4 nM | 65.4 nM | 87.9 nM |  |
| CC[C@H](C)[C@@H]([C@@H](CC(=O)N1CCC[C@H]1[C@H](OC)[C@@H](C)C(=O)N[C@H](C(=O)OC)C1(c2ccccc2)CC1)OC)N(C)C(=O)[C@@H](NC(=O)C(C)(C)N)C(C)C [#223] (H-[Aib]V[Dil][Dolaproine][X5]-OMe) | 7.59 nM | 10.9 nM | 13 nM |  |
| CC[C@H](C)[C@@H]([C@@H](CC(=O)N1CCC[C@H]1[C@H](OC)[C@@H](C)C(=O)N[C@@H](C(=O)OC)[C@@H]1Cc2ccccc21)OC)N(C)C(=O)[C@@H](NC(=O)C(C)(C)N)C(C)C [#224] (H-[Aib]V[Dil][Dolaproine][X6]-OMe) | 0.383 nM | 0.998 nM | 1.56 nM |  |
| CC[C@H](C)[C@@H]([C@@H](CC(=O)N1CCC[C@H]1[C@H](OC)[C@@H](C)C(=O)N[C@@H](Cc1ccccc1)C(=O)OC)OC)N(C)C(=O)[C@@H](NC(=O)C(C)(C)NC)C(C)C [#226] (H-[NMeAib]V[Dil][Dolaproine]F-OMe) | 0.118 nM | 0.106 nM | 0.478 nM |  |
| CC[C@H](C)[C@@H]([C@@H](CC(=O)N1CCC[C@H]1[C@H](OC)[C@@H](C)C(=O)N[C@@H](Cc1ccccc1)C(=O)O)OC)N(C)C(=O)[C@@H](NC(=O)C(C)(C)N(C)C)C(C)C [#229] (X4-V[Dil][Dolaproine]F-OH) | 18.4 nM | 10.2 nM | 16.6 nM |  |
| CC[C@H](C)[C@@H]([C@@H](CC(=O)N1CCC[C@H]1[C@H](OC)[C@@H](C)C(=O)N[C@@H](C(=O)O)C1(c2ccccc2)CC1)OC)N(C)C(=O)[C@@H](NC(=O)C(C)(C)N)C(C)C [#230] (H-[Aib]V[Dil][Dolaproine][X2]-OH) | ≥ 100 nM | 70.2 nM | 89.1 nM |  |
| CC[C@H](C)[C@@H]([C@@H](CC(=O)N1CCC[C@H]1[C@H](OC)[C@@H](C)C(=O)N[C@@H](Cc1ccccc1)C(=O)OC)OC)N(C)C(=O)[C@@H](NC(=O)[C@@]1(C)CCCN1C)C(C)C [#236] (X1-V[Dil][Dolaproine]F-OMe) | 0.02 nM | 0.01 nM | 0.023 nM |  |
| C#CCNC(=O)[C@H](Cc1ccccc1)NC(=O)[C@H](C)[C@@H](OC)[C@@H]1CCCN1C(=O)C[C@@H](OC)[C@H]([C@@H](C)CC)N(C)C(=O)[C@@H](NC(=O)C(C)(C)NC)C(C)C [#241] (H-[NMeAib]V[Dil][Dolaproine]F-{NH(propargyl)}) | 0.364 nM | 0.494 nM | 0.388 nM |  |
| CC[C@H](C)[C@@H]([C@@H](CC(=O)N1CCC[C@H]1[C@H](OC)[C@@H](C)C(=O)N[C@@H](Cc1c[nH]cn1)C(=O)OC)OC)N(C)C(=O)[C@@H](NC(=O)C(C)(C)NC)C(C)C [#242] (H-[NMeAib]V[Dil][Dolaproine]H-OMe) | 32.3 nM | 34.5 nM | 41.3 nM |  |
| CC[C@H](C)[C@@H]([C@@H](CC(=O)N1CCC[C@H]1[C@H](OC)[C@@H](C)C(=O)N[C@H](Cc1ccccc1)C(=O)O)OC)N(C)C(=O)[C@@H](NC(=O)C(C)(C)NC)C(C)C [#244] (H-[NMeAib]V[Dil][Dolaproine][dF]-OH) | 73.1 nM | ≥ 100 nM | ≥ 100 nM |  |
| CC[C@H](C)[C@@H]([C@@H](CC(=O)N1CCC[C@H]1[C@H](OC)[C@@H](C)C(=O)N[C@@H](Cc1ccccc1)C(=O)N1CCNCC1)OC)N(C)C(=O)[C@@H](NC(=O)[C@]1(C)CCCN1C)C(C)C [#245] (NMeαMePro-V[Dil][Dolaproine]F-{N(CH2CH2)2NH}) | 11.8 nM | 31.9 nM | 33 nM |  |
| CC[C@H](C)[C@@H]([C@@H](CC(=O)N1CCC[C@H]1[C@H](OC)[C@@H](C)C(=O)N[C@H](CN)Cc1ccccc1)OC)N(C)C(=O)[C@@H](NC(=O)[C@]1(C)CCCN1C)C(C)C [#246] | 3.16 nM | 5.43 nM | 10.8 nM |  |
| ch28-mc8261 (conjugate) VH: EVQLVESGGGLVQPGRSLTLSCVASGFTFRDYGMTWIRQAPGKGLTWVAYISSGSNYIYYAEAVKGRFTISRDNAKNTLYLQMTSLRSEDTALYFCTRRGPFVLDAWGQGASVTVSS VL: DIQMTQSPSFLSASVGDRVTINCKASQSINRYLHWFQQKLGEAPKLLIYNANGLQTGIPSRFSGSGSGTDFTLTISSLQSEDVATYFCLQHNTWPDTFGAGTKLELK |  |  |  | 12147 ± 4806.4 ng Ab/mL |
| ch75-MalPeg6C2-8261 (conjugate) VH: QVKLLQSGAALVKPGASVKMSCKASGYAFTDYWVTWVKQSHGKSLEWIGEISPNSGGTNFNEKFKGKATLTVDKSTSTAYMELSRLTSEDSAIYYCTRGEIRYNWFAYWGQGTLVTVSS VL: DIQMTQSPSSLSASVGDRVTITCKASQNVGNNIAWYQQKPGKAPKLLIYYASNRYTGVPSRFSGSGYGTDFTLTISSLQPEDFATYYCQRLYNSPFTFGGGTKVEIK |  |  |  | 4255 ± 2375 ng Ab/mL |
| ch75-mc3377 (conjugate) VH: QVKLLQSGAALVKPGASVKMSCKASGYAFTDYWVTWVKQSHGKSLEWIGEISPNSGGTNFNEKFKGKATLTVDKSTSTAYMELSRLTSEDSAIYYCTRGEIRYNWFAYWGQGTLVTVSS VL: DIQMTQSPSSLSASVGDRVTITCKASQNVGNNIAWYQQKPGKAPKLLIYYASNRYTGVPSRFSGSGYGTDFTLTISSLQPEDFATYYCQRLYNSPFTFGGGTKVEIK |  |  |  | 560 ng Ab/mL |
| ch75-me0131 (conjugate) VH: QVKLLQSGAALVKPGASVKMSCKASGYAFTDYWVTWVKQSHGKSLEWIGEISPNSGGTNFNEKFKGKATLTVDKSTSTAYMELSRLTSEDSAIYYCTRGEIRYNWFAYWGQGTLVTVSS VL: DIQMTQSPSSLSASVGDRVTITCKASQNVGNNIAWYQQKPGKAPKLLIYYASNRYTGVPSRFSGSGYGTDFTLTISSLQPEDFATYYCQRLYNSPFTFGGGTKVEIK |  |  |  | 259 ng Ab/mL |
